# Results from patent US20150141580A1, “OPTIMIZED DRUG CONJUGATES” (SynDevRx, Inc., priority 2010, published 2015).
# Assay: Pharmacokinetics of polymer conjugate, plasma SDX-7539 by LC-MS/MS
# Assay type: in vivo, Sprague-Dawley rats
# Settings: after SDX-7539 30 mg/kg or SDX-7320 200 mg/kg IV, rat
# Description: FIG. 6 is a graph showing the plasma concentration of the active metabolite, SDX-7539, as a function of time in Sprague-Dawley rats, to which either the polymer conjugate SDX-7320 (single bolus, intravenous injection, 200 mg/kg) or the small molecule SDX-7539 (single bolus, intravenous injection, 30 mg/kg) has been administered.
# The polymer conjugate, SDX-7320, or the in vivo release product, SDX-7539 were administered to Sprague-Dawley rats (N=3). Blood was collected over 48 hours after dosing to determine the plasma concentration of SDX-7539 by LC-MS/MS. The LLOQ for SDX-7539 was 2.5 nM. The terminal elimination half-life for SDX-7539 was estimated by fitting a linear regression to the In[SDX-7539] versus time data. […] Cmax for the polymer is about 2% of the value for the small molecule.
smiles,measurement,value
CO[C@@H]1[C@H](OC(=O)NC2CCC(N)CC2)CC[C@]2(CO2)[C@H]1[C@@]1(C)O[C@@H]1CC=C(C)C (stereo partly shown) [SDX-7539],AUC for SDX-7539,comparable
